The values below come from patent publication EP0819136B1, “MDP DERIVATIVES AND CONJUGATES HAVING HAEMATOPOIETIC FUNCTION STIMULATING ACTIVITY, AND COMPOSITIONS CONTAINING SAME” (VACSYN S.A., priority 1995, dated 1996).

In data set [1] the test system is globules rouges et les plaquettes. As to the kind of experiment: Red blood cell and platelet counts after 7 days of oral AZT, Muradimétide or both (Example 3, figures 9 and 10). In kind it is in vivo, souris femelles BALB/c. To be noted: p.o. once daily for 7 days: 100 mg/kg AZT, 50 mg/kg muradimétide, or both simultaneously; counts up to day 10. From the text:
La figure 9 représente l'effet du traitement per os de souris BALB/c pendant 7 jours consécutifs avec de l'AZT, du Muradimétide (MDM) ou un mélange de ceux-ci sur la numération plaquettaire.
La figure 10 représente l'effet du traitement per os de souris BALB/c pendant 7 jours consécutifs avec de l'AZT, du Muradimétide (MDM) ou un mélange de ceux-ci sur le nombre des globules rouges.
L'effet d'un traitement de 7 jours sur le nombre de globules rouges et de plaquettes est indiqué dans les figures 9 et 10 respectivement. Les numérations sont représentées en pourcentage de celles obtenues au jour 0. Des souris femelles BALB/c (5 par groupe) sont traitées une fois par jour pendant 7 jours consécutifs par 100 mg/kg d'AZT (Δ), 50 mg/kg de muradimétide (D) ou simultanément par 100 mg/kg d'AZT et 50 mg/kg de muradimétide (O). Les comptages de plaquettes ou de globules rouges ont été réalisés au jour 0 et jusqu'à 10 jours suivant le début du traitement. […] La tendance à l'augmentation de leur nombre apparaît entre les jours 4 et 5. En revanche, l'anémie qui pourrait être observée dans les groupes traités pourrait être due aux saignements répétés; néanmoins la vitesse et l'importance de l'anémie est grandement réduite chez les animaux traités avec le mélange des deux produits en comparaison avec celui observé dans le groupe traité par l'AZT seul. […]

Data set [2] deals with neutrophiles circulants, leucocytes circulants, monocytes circulants, myélocytes circulants. In words: Comparison of Muradimétide and GM-CSF on circulating cell counts after i.v. AZT (Example 9, figures 4-7). In kind it is in vivo, souris Swiss femelles. The following applies: AZT 40 mg/kg i.v. days 0-3; Muradimétide 25 mg/kg or mGM-CSF 125 µg/kg i.v. 4 h before AZT. The text has this: La figure 4 représente les effets comparés du Muradimétide et du rmGM-CSF (recombinant mouse GM-CSF) sur la numération des neutrophiles circulants après administration d'AZT.
La figure 5 représente la même comparaison sur la numération des leucocytes circulants.
La figure 6 représente la même comparaison sur la numération de monocytes circulants.
La figure 7 représente la même comparaison sur la numération des myélocytes circulants.
Lorsque les souris ayant reçu un traitement par l'AZT sont traitées par du GM-SCF dans les mêmes conditions que celles utilisées pour le Muradimétide, les comptages de leucocytes et de neutrophiles ne présentent pas d'augmentation contrairement à ce qui est observé lorsque la combinaison AZT-Muradimétide est utilisée. Par contre, on observe une augmentation du nombre des monocytes. Les figures 4, 5, 6, et 7 indiquent l'effet d'un traitement des souris avec du Muradimétide ou avec du mGM-CSF sur les changements respectivement dans les neutrophiles circulants, dans les leucocytes circulants ou dans les monocytes circulants ou dans les myélocytes circulants après une administration intraveineuse d'AZT.
Les souris Swiss femelles ont été traitées par voie intra-veineuse avec 40 mg par kg d'AZT aux jours 0, 1, 2 et 3. […]

Turning to `COC(=O)CC[C@@H](NC(=O)[C@H](C)NC(=O)[C@@H](C)O[C@H]1[C@H](O)[C@@H](CO)OC(O)[C@@H]1NC(C)=O)C(=O)OC` (stereo partly drawn) [Muradimétide, Nac-Mur-L-Ala-D-Glu-[OCH3]-OCH3], the “toxicité sur les plaquettes” value in data set [1] is “Aucune toxicité”. Besides, in data set [2], the “comptages de leucocytes et de neutrophiles” value is “effet nettement marqué” and the “élévation / mobilisation des CSH dans le sang (myélocytes circulants)” value is reported as “très forte élévation”.
